In series [1] the test system is human T leukemia/lymphoma (JURKAT). The series can be described thus: DNA flow cytometry of cell cycle arrest, JURKAT. The series is classed as cell-based. The conditions noted are these: 100 μM, 48 hour. As to the method: (§1) Exponentially growing tumor cells were cultured at 1×10^6 cells/ml in clonogenic medium (RPMI 1640 medium +1% penicillin/streptomycin +10% heat-inactivated fetal bovine serum, 2 mML-glutamine, and 10 mM Hepes buffer) in the presence or absence of 100 μM compound 003 for 48 hour at 37° C., 5% CO2. At 48 h, cells were washed two times in fresh clonogenic medium, trypsinized, fixed in ice cold ethanol and labeled with propidium iodide to quantify their DNA content, as described previously (See, for example, Navara, et al., 2001, Anticancer Drugs. 12:369). Quantitative DNA analysis was performed on a Becton Dickenson Calibur flow cytometer equipped with a Consort 40 computer using the COTFIT program, which includes CELLCY, a cell cycle distribution function that fits DNA content histograms and calculates-the percentages of cells in G, S, and GM phases of the cell cycle, as described, for example, in Uckun et al., 1996, J Biol Chem. 271, 6389.
For orientation: In flow cytometry, cells or beads pass a laser one at a time.

The next series can be described thus: Stability in plasma. The format is in vitro ADME. As to the method:
(§2) Plasma samples, simulated gastric fluid and intestinal fluids (United State Pharmacopeia XXII methods) were separately spiked with COMPOUND 003 to yield final concentrations of 500 μM. Spiked samples were incubated at 37° C. At a predetermined time (5, 10, 15, 30 60 and 120 minutes), an aliquot (200 μl) of the spiked plasma sample was extracted as described above.

The subject of series [2] is DU145 prostate cancer cells. Put plainly: Confocal laser scanning microscopy of mitotic spindle, DU145. The series is classed as cell-based, human. As to conditions: 100 μM. The method, then:
(§3) Immunofluorenscence was used to examine the spindle features of human cancer cell lines treated with Compound 003 or 0.5% DMSO. Initially, cells at log phase were seeded onto sterile 22 mm coverslips in six -well culture plates. 24 hours later, the cells were treated with compound 003 for 2 hours at 37° C., 5% C02, fixed in methanol (−20° C. 15 min) followed by a 15 minute incubation with PBS +0.1.% Tx-100. The coverslips were incubated with antibodies raised against α-tubulin, γ-tubulin (Sigma Chemical Co., St Louis, Mo.) (40 min 37° C.), washed in PBS-Tx-100, and incubated with an appropriate secondary antibody conjugated to FITC (Jackson ImmunoResearch, Westgrove, Pa.). Cellular DNA was labeled with 5 μM TOTO3 (Molecular Probes, Eugene, Oreg.) for 20 minutes. Coverslips were immediately inverted onto slides in Vectashield (Vector Labs, Burlingame, Calif.) to prevent photobleaching, sealed with nail varnish and stored at −20° C. The slides were examined using a Bio-Rad MRC-1024 Laser Scanning Confocal Microscope equipped with a Kr/Ar laser (BioRad, Hercules, Calif.) mounted on a Nikon Eclipse E800 upright microscope with high numerical aperture objectives (Nikon, Melville, N.Y.). Digital data were processed using Lasersharp (BioRad) and Adobe Photoshop software (Adobe Systems, Mountain View, Calif.). […]

In series [3] the test system is MDA-MB breast cancer cells. The series can be described thus: Confocal laser scanning microscopy of mitotic spindle, MDA-MB. The series is classed as cell-based, human. As to the method:
as §3

In series [4] the test system is MMTV/Neu transgenic mice kept pregnant or lactating. The series can be described thus: Lactation induced murine model of Her 2 positive breast cancer, MMTV/Neu transgenic mice. The format is in vivo. The method, then:
MMTV/Neu transgenic mice were treated with Compound 003 that was added to the daily food of the mice at an average daily dose level of 50 mg/kg/day for the duration of the experiment. Mice were screened for the tumor formation every other day. Tumor-free survival was analyzed using life table statistics as previously reported. The protective anti-cancer activity of Compound 003 was evaluated according to the rise of the survival rate and prolongation of the tumor-free survival of the experimental animals as compared with the control animals. Statistical Significance was determined using the Kaplan Meier Log-Rank test.
In the second experiment, in order to maintain the development of mammary gland and maximum expression of the MMTV-driven neu transgene, all female transgenic mice were kept either pregnant or lactating by continued housing with male FVB mice. Treatments commenced when female mice were 6-weeks of age. Vehicle-treated control mice (N=16) developed breast cancer faster than vehicle treated virgin transgenic mice with a median cancer-free survival time of 169.5 days (Mean=160.8±9.3 days). Compound 003 prolonged the median cancer-free survival from 169.5 days to 234 days (P=0.05). At 200 days, the cumulative proportion of vehicle-treated neu transgenic mice was only 38±12%, whereas at the same time 75±11% of Compound 003-treated neu transgenic mice were cancer-free (FIG. 9).

Series [5] relates to PC-3 prostate cancer cells. The series can be described thus: Confocal laser scanning microscopy of mitotic spindle, PC-3. The series is classed as cell-based, human. As to conditions: 100 μM. The method, then: as §3
Series [6] can be described thus: Stability in simulated intestinal fluid. The series is classed as in vitro ADME. As to the method:
as §2

Series [7] concerns human infant leukemia (RS4; 11). The series can be described thus: DNA flow cytometry of cell cycle arrest, RS4;11. The conditions noted are these: 100 μM, 48 hour. The format is cell-based. The method, then:
as §1

Take `COC(=O)C(C)NP(=O)(OCC1OC(n2cc(C)c(=O)[nH]c2=O)CC1N=[N+]=[N-])Oc1ccc(OC)cc1` (stereo not drawn) [Compound 003, 3′-azidothymidine 5′-[p-methoxyphenylmethoxyalaninyl phosphate]]: the cell cycle arrest result in series [1] and in series [7] was “G2M cell cycle arrest” each time. The values for the decomposition product entry (in the series “Stability in plasma”; in series [6] (intestinal fluid)) were “decomposed to mainly form ala-AZT-MP” and “decomposed to form ala-AZT-MP”, respectively. Besides, the stability result in the series “Stability in plasma” (500 μM, 37° C.) is “unstable in plasma”; in series [6] (simulated intestinal fluid, 500 μM, 37° C.), “unstable”. Also, the “share of Compound 003 decomposed” value in “Stability in plasma” (500 μM, 37° C., within 5 minutes) is recorded as > 99%. For the same molecule, the mitotic spindle formation entry was “induced aberrant multipolar spindle formation” in series [2], “induced aberrant multipolar (instead of normal bipolar) spindle formation” in series [3] and “induced aberrant multipolar spindle formation” in series [5]. Further, the median cancer-free survival in series [4] (50 mg/kg/day in food, vehicle 169.5 days, P=0.05) was found to be 234 days. For the same molecule, the “proportion of mice cancer-free” value in series [4] (50 mg/kg/day, at 200 days, vehicle 38±12%) was 75±11%.

The values above are taken from US20060046972A1, “Cytotoxic nucleoside analog compound 003 for treating cancer” (Parker Hughes Institute, priority 2004, published 2006).
